From patent US12492188B2, “1H-benzo[D]imidazole derivatives as TLR9 inhibitors for the treatment of fibrosis” (BRISTOL-MYERS SQUIBB COMPANY, priority 2020, dated 2025)
Read-outs that look alike come from different tables or passages of the source.

Experiments:
Format in all cases: cell-based
human TLR9 = target: T1, human TLR9 (Homo sapiens, UniProt Q9NR96); assay: TLR9 inhibition reporter assay (HEK-Blue cells, secreted embryonic alkaline phosphatase reporter)
T1 construct: host or cells: HEK-Blue cells (HEK293-derived reporter line)
T1 sequence (Q9NR96 26-1032): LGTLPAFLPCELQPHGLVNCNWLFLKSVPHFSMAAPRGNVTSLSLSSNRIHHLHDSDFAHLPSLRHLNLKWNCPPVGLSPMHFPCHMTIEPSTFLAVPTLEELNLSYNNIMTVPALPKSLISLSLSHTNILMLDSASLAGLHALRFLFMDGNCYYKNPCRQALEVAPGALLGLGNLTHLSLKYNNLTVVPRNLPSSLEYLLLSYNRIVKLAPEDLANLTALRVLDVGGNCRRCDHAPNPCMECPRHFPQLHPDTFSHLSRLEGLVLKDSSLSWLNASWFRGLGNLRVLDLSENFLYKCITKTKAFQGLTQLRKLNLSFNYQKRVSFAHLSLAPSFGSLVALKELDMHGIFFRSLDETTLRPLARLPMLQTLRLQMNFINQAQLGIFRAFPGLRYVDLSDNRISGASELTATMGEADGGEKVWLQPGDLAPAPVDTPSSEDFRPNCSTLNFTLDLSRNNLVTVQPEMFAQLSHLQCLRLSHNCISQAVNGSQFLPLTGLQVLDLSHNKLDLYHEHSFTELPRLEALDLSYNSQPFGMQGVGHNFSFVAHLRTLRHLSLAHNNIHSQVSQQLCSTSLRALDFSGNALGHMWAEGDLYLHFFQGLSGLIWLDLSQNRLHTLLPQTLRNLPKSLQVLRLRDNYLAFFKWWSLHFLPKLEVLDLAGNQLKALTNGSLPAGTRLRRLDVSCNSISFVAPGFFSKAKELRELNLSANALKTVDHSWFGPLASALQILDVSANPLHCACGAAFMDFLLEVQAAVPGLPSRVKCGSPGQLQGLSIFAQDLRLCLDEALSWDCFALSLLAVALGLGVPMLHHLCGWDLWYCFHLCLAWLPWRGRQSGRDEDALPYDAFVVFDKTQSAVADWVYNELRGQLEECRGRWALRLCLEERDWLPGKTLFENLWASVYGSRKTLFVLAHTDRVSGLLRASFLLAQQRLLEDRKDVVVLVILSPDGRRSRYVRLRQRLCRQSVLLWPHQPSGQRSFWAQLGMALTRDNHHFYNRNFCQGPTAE
Outline: (§1)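 Steps: seed receptor-specific HEK-Blue cells; add compound, 0.05 nM–50 μM; wait 30 min at room temperature; add final gardiquimod 7.5 μM, R848 15.9 μM or ODN2006 5 nM for TLR7, TLR8 or TLR9; incubate 22 h at 37 °C; detect NF-κB/AP-1-driven SEAP.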

human TLR7 = target: T2, human TLR7 (Homo sapiens, UniProt Q9NYK1); assay: TLR7 inhibition reporter assay (HEK-Blue cells, secreted embryonic alkaline phosphatase reporter); conditions: HEK-Blue cells overexpressing human TLR7, stimulated with gardiquimod 7.5 μM; read-out: TLR 7 IC50
T2 construct: host or cells: HEK-Blue cells (HEK293-derived reporter line)
T2 sequence (Q9NYK1 27-1049): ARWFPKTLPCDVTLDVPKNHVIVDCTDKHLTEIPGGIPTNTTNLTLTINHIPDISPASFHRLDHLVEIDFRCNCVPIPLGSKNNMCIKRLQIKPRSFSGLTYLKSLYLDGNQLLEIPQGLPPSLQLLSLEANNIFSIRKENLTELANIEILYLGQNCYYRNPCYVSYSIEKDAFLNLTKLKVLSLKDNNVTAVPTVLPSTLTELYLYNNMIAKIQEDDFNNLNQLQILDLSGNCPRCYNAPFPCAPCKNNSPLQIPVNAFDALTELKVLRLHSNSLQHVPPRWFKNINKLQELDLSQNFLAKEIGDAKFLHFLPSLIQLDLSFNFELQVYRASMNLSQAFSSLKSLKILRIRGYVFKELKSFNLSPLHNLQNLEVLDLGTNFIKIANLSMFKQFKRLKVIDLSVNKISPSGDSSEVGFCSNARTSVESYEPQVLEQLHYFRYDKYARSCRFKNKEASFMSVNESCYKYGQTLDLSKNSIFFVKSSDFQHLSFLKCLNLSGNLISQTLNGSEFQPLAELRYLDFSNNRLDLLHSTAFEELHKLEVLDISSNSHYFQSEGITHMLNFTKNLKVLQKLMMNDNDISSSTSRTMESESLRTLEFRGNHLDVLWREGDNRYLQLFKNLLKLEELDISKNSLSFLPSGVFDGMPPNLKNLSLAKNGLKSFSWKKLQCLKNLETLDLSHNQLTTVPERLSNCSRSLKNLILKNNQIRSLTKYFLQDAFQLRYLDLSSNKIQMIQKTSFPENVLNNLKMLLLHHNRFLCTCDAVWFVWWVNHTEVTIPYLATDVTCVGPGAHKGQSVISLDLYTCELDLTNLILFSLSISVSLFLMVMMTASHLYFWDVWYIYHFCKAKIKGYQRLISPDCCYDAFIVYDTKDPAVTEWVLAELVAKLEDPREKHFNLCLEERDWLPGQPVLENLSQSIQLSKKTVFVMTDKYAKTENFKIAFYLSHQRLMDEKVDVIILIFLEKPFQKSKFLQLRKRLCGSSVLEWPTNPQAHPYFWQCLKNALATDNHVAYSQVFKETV
Outline: as §1

human TLR8 = target: T3, human TLR8 (Homo sapiens, UniProt Q9NR97); assay: TLR8 inhibition reporter assay (HEK-Blue cells, secreted embryonic alkaline phosphatase reporter); conditions: HEK-Blue cells overexpressing human TLR8, stimulated with R848 15.9 μM; read-out: TLR 8 IC50
T3 construct: host or cells: HEK-Blue cells (HEK293-derived reporter line)
T3 sequence (Q9NR97 27-1041): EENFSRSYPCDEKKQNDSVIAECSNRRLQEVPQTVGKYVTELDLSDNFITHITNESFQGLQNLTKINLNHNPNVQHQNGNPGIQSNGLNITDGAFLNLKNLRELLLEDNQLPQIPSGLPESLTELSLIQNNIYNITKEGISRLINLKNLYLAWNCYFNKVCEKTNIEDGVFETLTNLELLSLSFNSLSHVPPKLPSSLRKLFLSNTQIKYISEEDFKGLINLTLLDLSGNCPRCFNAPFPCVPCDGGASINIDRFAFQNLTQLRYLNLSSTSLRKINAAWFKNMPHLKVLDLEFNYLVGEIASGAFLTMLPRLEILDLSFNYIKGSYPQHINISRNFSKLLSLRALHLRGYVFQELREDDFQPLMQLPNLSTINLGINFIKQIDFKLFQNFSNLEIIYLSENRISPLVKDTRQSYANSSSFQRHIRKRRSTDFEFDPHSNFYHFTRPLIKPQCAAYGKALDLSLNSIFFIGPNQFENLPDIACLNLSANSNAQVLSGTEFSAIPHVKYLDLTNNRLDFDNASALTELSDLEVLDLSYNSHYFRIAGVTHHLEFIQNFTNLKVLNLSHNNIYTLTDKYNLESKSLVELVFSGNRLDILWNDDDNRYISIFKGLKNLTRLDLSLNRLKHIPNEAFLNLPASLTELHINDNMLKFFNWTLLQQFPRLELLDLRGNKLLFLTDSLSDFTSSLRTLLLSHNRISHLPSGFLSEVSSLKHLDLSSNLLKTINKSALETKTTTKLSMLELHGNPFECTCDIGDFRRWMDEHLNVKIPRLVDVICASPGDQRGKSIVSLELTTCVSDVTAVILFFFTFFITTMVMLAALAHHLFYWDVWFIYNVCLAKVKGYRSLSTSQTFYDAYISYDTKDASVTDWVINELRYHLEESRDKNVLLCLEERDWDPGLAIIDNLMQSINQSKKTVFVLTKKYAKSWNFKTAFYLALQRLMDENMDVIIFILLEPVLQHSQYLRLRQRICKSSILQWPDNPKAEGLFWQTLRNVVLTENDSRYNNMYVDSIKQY
Outline: as §1

[1] = HEK-Blue cells overexpressing human TLR9, stimulated with ODN2006 5 nM, read-out: TLR 9 IC50
[2] = HEK-Blue human TLR9 reporter cells

SMILES | IC50 (human TLR9) [nM] | IC50 (human TLR9; [1]) [nM] | IC50 (human TLR7) [nM] | IC50 (human TLR8) [nM] | IC50 (human TLR9; [2]) [nM]
Cn1c(-c2ccc(S(C)(=O)=O)cc2)nc2ccc(C3CCN(C4CC5CCC(C4)N5C4CCC4)CC3)c(F)c21 (single isomer, unassigned) [Example 270, 6-(1-(8-cyclobutyl-8-azabicyclo[3.2.1]octan-3-yl)piperidin-4-yl)-7-fluoro-1-methyl-2-(4-(methylsulfonyl)phenyl)-1H-benzo[d]imidazole] | 65 | 65 | 17700 | > 50000 | 
Cn1c(-c2ccc(S(C)(=O)=O)cc2)nc2ccc(C3CCN(C4CC5CCC(C4)N5C4CCC4)CC3)c(F)c21 (single isomer, unassigned) [Example 271, 6-(1-(8-cyclobutyl-8-azabicyclo[3.2.1]octan-3-yl)piperidin-4-yl)-7-fluoro-1-methyl-2-(4-(methylsulfonyl)phenyl)-1H-benzo[d]imidazole] | 410 | 407 | 31600 | > 50000 | 
COCCN1C2CCC1CC(N1CCC(c3ccc4nc(-c5ccc(S(C)(=O)=O)cc5)n(C)c4c3F)CC1)C2 (single isomer, unassigned) [Example 276, 7-fluoro-6-(1-(8-(2-methoxyethyl)-8-azabicyclo[3.2.1]octan-3-yl)piperidin-4-yl)-1-methyl-2-(4-(methylsulfonyl)phenyl)-1H-benzo[d]imidazole] | 170 | 167 | 1500 | > 50000 | 
COCCN1C2CCC1CC(N1CCC(c3ccc4nc(-c5ccc(S(C)(=O)=O)cc5)n(C)c4c3F)CC1)C2 (single isomer, unassigned) [Example 277, 7-fluoro-6-(1-(8-(2-methoxyethyl)-8-azabicyclo[3.2.1]octan-3-yl)piperidin-4-yl)-1-methyl-2-(4-(methylsulfonyl)phenyl)-1H-benzo[d]imidazole] | 270 | 269 | 1000 | 16300 | 

Second part, the molecule after the results:

IC50 (human TLR9) [nM] | IC50 (human TLR9; [1]) [nM] | IC50 (human TLR7) [nM] | IC50 (human TLR8) [nM] | IC50 (human TLR9; [2]) [nM] | SMILES
 | 108 | 7100 | > 50000 | 110 | Cn1c(-c2ccc(S(C)(=O)=O)cc2)nc2c(F)cc(C3CCN(C4CC5CCC(C4)N5CC4CC4)CC3)cc21 (single isomer, unassigned) [Example 282, 6-(1-(8-(cyclopropylmethyl)-8-azabicyclo[3.2.1]octan-3-yl)piperidin-4-yl)-4-fluoro-1-methyl-2-(4-(methylsulfonyl)phenyl)-1H-benzo[d]imidazole]
 | 16 | 4700 | > 50000 | 16 | Cn1c(-c2ccc(S(C)(=O)=O)cc2)nc2c(F)cc(C3CCN(C4CC5CCC(C4)N5CC4CC4)CC3)cc21 (single isomer, unassigned) [Example 283, 6-(1-(8-(cyclopropylmethyl)-8-azabicyclo[3.2.1]octan-3-yl)piperidin-4-yl)-4-fluoro-1-methyl-2-(4-(methylsulfonyl)phenyl)-1H-benzo[d]imidazole]
 | 105 | 31700 | > 50000 | 110 | Cn1c(-c2ccc(S(C)(=O)=O)cc2)nc2c(F)cc(C3CCN(C4CC5CCC(C4)N5C4CCOCC4)CC3)cc21 (single isomer, unassigned) [Example 288, 4-fluoro-1-methyl-2-(4-(methylsulfonyl)phenyl)-6-(1-(8-(tetrahydro-2H-pyran-4-yl)-8-azabicyclo[3.2.1]octan-3-yl)piperidin-4-yl)-1H-benzo[d]imidazole]
 | 29 | 3200 | > 50000 | 29 | Cn1c(-c2ccc(S(C)(=O)=O)cc2)nc2c(F)cc(C3CCN(C4CC5CCC(C4)N5C4CCOCC4)CC3)cc21 (single isomer, unassigned) [Example 289, 4-fluoro-1-methyl-2-(4-(methylsulfonyl)phenyl)-6-(1-(8-(tetrahydro-2H-pyran-4-yl)-8-azabicyclo[3.2.1]octan-3-yl)piperidin-4-yl)-1H-benzo[d]imidazole]
 | 144 | 22200 | > 50000 | 150 | COCCN1C2CCC1CC(N1CCC(c3cc(F)c4nc(-c5ccc(S(C)(=O)=O)cc5)n(C)c4c3)CC1)C2 (single isomer, unassigned) [Example 290, 4-fluoro-6-(1-(8-(2-methoxyethyl)-8-azabicyclo[3.2.1]octan-3-yl)piperidin-4-yl)-1-methyl-2-(4-(methylsulfonyl)phenyl)-1H-benzo[d]imidazole]
 | 57 | 1800 | 34800 | 57 | COCCN1C2CCC1CC(N1CCC(c3cc(F)c4nc(-c5ccc(S(C)(=O)=O)cc5)n(C)c4c3)CC1)C2 (single isomer, unassigned) [Example 291, 4-fluoro-6-(1-(8-(2-methoxyethyl)-8-azabicyclo[3.2.1]octan-3-yl)piperidin-4-yl)-1-methyl-2-(4-(methylsulfonyl)phenyl)-1H-benzo[d]imidazole]
